# According to patent publication US20200131196A1 (Mount Tam Therapeutics, Inc., priority 2017, published 2020):
# Key:
# Type in all cases: cell-based, human
# [1] = tested on: SK-N-AS; experiment: OncoPanel cell proliferation assay, SK-N-AS
# Protocol: (§1) Cells were grown in RPMI 1640, 10% FBS, 2 mM L-alanyl-L-glutamine, 1 mM Na pyruvate, or a special medium. Cells were seeded into 384-well plates and incubated in a humidified atmosphere of 5% CO2 at 37° C. Compounds were added the day following cell seeding. At the same time, a time zero untreated cell plate was generated. After a 3-day incubation period, cells were fixed and stained to allow fluorescence imaging of nuclei. Compounds (1 mM stock solutions) were serially diluted in half-log steps from the highest test concentration ([…]), and assayed over 10 concentrations with a maximum assay concentration of 0.1% DMSO. Automated fluorescence microscopy was carried out using a Molecular Devices ImageXpress Micro XL high-content imager, and images were collected with a 4× objective. 16-bit TIFF images were acquired and analyzed with MetaXpress 5.1.0.41 software.
# (§2) Cell proliferation was measured by the fluorescence intensity of an incorporated nuclear dye. The output is referred to as the relative cell count, where the measured nuclear intensity is transformed to percent of control (POC) using the following formula: […]
# (§3) Cellular response parameters were calculated using nonlinear regression to a sigmoidal single-site dose response model:
# (§4) EC50 is the test compound concentration at the curve inflection point or half the effective response (parameter C of the fitted curve solution). GI50 is the concentration needed to reduce the observed growth by half (midway between the curve maximum and the time zero value). “Cell Count Activity Area” is an estimate of the integrated area above the curve (Barretina, et al. The Cancer Cell Line Encyclopedia enables predictive modelling of anticancer drug sensitivity. Nature 483: 603-607). […] In rare instances, values <0 or >10 may be observed. […] Curve-fitting, calculations, and report generation was performed using a custom data reduction engine and MathIQ based software (AIM).
# [2] = tested on: SW684; experiment: OncoPanel cell proliferation assay, SW684
# Protocol: as §1, with “Cells” for “Cells were grown in RPMI 1640, 10% FBS, 2 mM L-alanyl-L-glutamine, 1 mM Na pyruvate, or a special medium. Cells”
# as §2, §3
# (§5) GI50 is the concentration needed to reduce the observed growth by half (midway between the curve maximum and the time zero value). […] In rare instances, values <0 or >10 may be observed. […] Curve-fitting, calculations, and report generation was performed using a custom data reduction engine and MathIQ based software (AIM).
# [3] = tested on: U2OS; experiment: OncoPanel cell proliferation assay, U2OS
# Protocol: as §1, with “Cells” for “Cells were grown in RPMI 1640, 10% FBS, 2 mM L-alanyl-L-glutamine, 1 mM Na pyruvate, or a special medium. Cells”
# as §2, §3, §5
# [4] = tested on: A388; experiment: OncoPanel cell proliferation assay, A388
# Protocol: as §1, with “Cells” for “Cells were grown in RPMI 1640, 10% FBS, 2 mM L-alanyl-L-glutamine, 1 mM Na pyruvate, or a special medium. Cells”
# as §2, §3, §5
# [5] = tested on: DMS114; experiment: OncoPanel cell proliferation assay, DMS114
# Protocol: as §1, with “Cells” for “Cells were grown in RPMI 1640, 10% FBS, 2 mM L-alanyl-L-glutamine, 1 mM Na pyruvate, or a special medium. Cells”
# as §2, §3, §5
# [6] = tested on: CaOV3; experiment: OncoPanel cell proliferation assay, CaOV3
# Protocol: as §1, §2, §3, §4
# [7] = tested on: SW579; experiment: OncoPanel cell proliferation assay, SW579
# Protocol: as §1, §2, §3, §4
# [8] = Homo sapiens, read-out: Cell Count EC50
# [9] = Homo sapiens, read-out: Cell Count GI50
# [10] = Homo sapiens, read-out: Cell Count IC50
compound,measurement,setting,value
"CO[C@H]1C[C@@H]2CC[C@@H](C)[C@@](O)(O2)C(=O)C(=O)N2CCCC[C@H]2C(=O)O[C@H]([C@H](C)C[C@H]2C[C@H]3C[C@@H]2C[C@@H]3O)CC(=O)[C@H](C)/C=C(\C)[C@@H](O)[C@@H](OC)C(=O)[C@H](C)C[C@H](C)/C=C/C=C/C=C/1C [Formula II, C37-[(1R,2S,4R,5S)-5-hyhroxybicyclo[2.2.1]heptane] rapamycin]",Cell Count Activity Area,[1],3.12
same,Relative cell count (%) Mean,[1]; 1.00E+00 microM,49.7%
same,Relative cell count (%) Mean,[1]; 1.00E-01 microM,54.0%
same,Relative cell count (%) Mean,[1]; 1.00E-02 microM,55.3%
same,Relative cell count (%) Mean,[1]; 1.00E-03 microM,77.8%
same,Relative cell count (%) Mean,[1]; 1.01E-04 microM,99.5%
same,Relative cell count (%) Mean,[1]; 3.16E-01 microM,49.5%
same,Relative cell count (%) Mean,[1]; 3.17E-02 microM,55.1%
same,Relative cell count (%) Mean,[1]; 3.17E-03 microM,70.3%
same,Relative cell count (%) Mean,[1]; 3.18E-04 microM,89.7%
same,Relative cell count (%) Mean,[1]; 3.18E-05 microM,97.7%
same,EC50,[1]; [8],1.41 nM
same,GI50,[1]; [9],4.82 nM
same,IC50,[1]; [10],422 nM
same,Cell Count Activity Area,[2],2.97
same,Relative cell count (%) Mean,[2]; 1.00E+00 microM,49.0%
same,Relative cell count (%) Mean,[2]; 1.00E-01 microM,55.6%
same,Relative cell count (%) Mean,[2]; 1.00E-02 microM,71.4%
same,Relative cell count (%) Mean,[2]; 1.00E-03 microM,85.1%
same,Relative cell count (%) Mean,[2]; 1.01E-04 microM,94.1%
same,Relative cell count (%) Mean,[2]; 3.16E-01 microM,52.4%
same,Relative cell count (%) Mean,[2]; 3.17E-02 microM,63.3%
same,Relative cell count (%) Mean,[2]; 3.17E-03 microM,71.8%
same,Relative cell count (%) Mean,[2]; 3.18E-04 microM,86.4%
same,Relative cell count (%) Mean,[2]; 3.18E-05 microM,99.5%
same,EC50,[2]; [8],4.57 nM
same,GI50,[2]; [9],2.19 nM
same,IC50,[2]; [10],370 nM
same,Cell Count Activity Area,[3],2.61
same,Relative cell count (%) Mean,[3]; 1.00E+00 microM,49.8%
same,Relative cell count (%) Mean,[3]; 1.00E-01 microM,51.6%
same,Relative cell count (%) Mean,[3]; 1.00E-02 microM,66.4%
same,Relative cell count (%) Mean,[3]; 1.00E-03 microM,78.8%
same,Relative cell count (%) Mean,[3]; 1.01E-04 microM,98.9%
same,Relative cell count (%) Mean,[3]; 3.16E-01 microM,47.3%
same,Relative cell count (%) Mean,[3]; 3.17E-02 microM,56.3%
same,Relative cell count (%) Mean,[3]; 3.17E-03 microM,81.3%
same,Relative cell count (%) Mean,[3]; 3.18E-04 microM,98.6%
same,Relative cell count (%) Mean,[3]; 3.18E-05 microM,92.7%
same,EC50,[3]; [8],5.4 nM
same,GI50,[3]; [9],35 nM
same,IC50,[3]; [10],324 nM
same,Cell Count Activity Area,[4],1.60
same,Relative cell count (%) Mean,[4]; 1.00E+00 microM,62.7%
same,Relative cell count (%) Mean,[4]; 1.00E-01 microM,65.6%
same,Relative cell count (%) Mean,[4]; 1.00E-02 microM,79.8%
same,Relative cell count (%) Mean,[4]; 1.00E-03 microM,80.8%
same,Relative cell count (%) Mean,[4]; 1.01E-04 microM,95.5%
same,Relative cell count (%) Mean,[4]; 3.16E-01 microM,62.3%
same,Relative cell count (%) Mean,[4]; 3.17E-02 microM,66.7%
same,Relative cell count (%) Mean,[4]; 3.17E-03 microM,79.0%
same,Relative cell count (%) Mean,[4]; 3.18E-04 microM,87.7%
same,Relative cell count (%) Mean,[4]; 3.18E-05 microM,86.5%
same,EC50,[4]; [8],8.24 nM
same,GI50,[4]; [9],> 1000 nM
same,IC50,[4]; [10],> 1000 nM
same,Cell Count Activity Area,[5],3.40
same,Relative cell count (%) Mean,[5]; 1.00E+00 microM,43.1%
same,Relative cell count (%) Mean,[5]; 1.00E-01 microM,50.1%
same,Relative cell count (%) Mean,[5]; 1.00E-02 microM,62.2%
same,Relative cell count (%) Mean,[5]; 1.00E-03 microM,74.7%
same,Relative cell count (%) Mean,[5]; 1.01E-04 microM,102.9%
same,Relative cell count (%) Mean,[5]; 3.16E-01 microM,46.7%
same,Relative cell count (%) Mean,[5]; 3.17E-02 microM,52.5%
same,Relative cell count (%) Mean,[5]; 3.17E-03 microM,63.9%
same,Relative cell count (%) Mean,[5]; 3.18E-04 microM,83.4%
same,Relative cell count (%) Mean,[5]; 3.18E-05 microM,99.7%
same,EC50,"[5]; Homo sapiens, DMS-114, read-out: Cell Count EC50",1.34 nM
same,GI50,"[5]; Homo sapiens, DMS-114, read-out: Cell Count GI50",0.611 nM
same,IC50,"[5]; Homo sapiens, DMS-114, read-out: Cell Count IC50",33.1 nM
same,Cell Count Activity Area,[6],2.53
same,Relative cell count (%) Mean,[6]; 1.00E+00 microM,57.7%
same,Relative cell count (%) Mean,[6]; 1.00E-01 microM,63.1%
same,Relative cell count (%) Mean,[6]; 1.00E-02 microM,73.9%
same,Relative cell count (%) Mean,[6]; 1.00E-03 microM,76.4%
same,Relative cell count (%) Mean,[6]; 1.01E-04 microM,98.2%
same,Relative cell count (%) Mean,[6]; 3.16E-01 microM,60.5%
same,Relative cell count (%) Mean,[6]; 3.17E-02 microM,64.6%
same,Relative cell count (%) Mean,[6]; 3.17E-03 microM,78.3%
same,Relative cell count (%) Mean,[6]; 3.18E-04 microM,76.6%
same,Relative cell count (%) Mean,[6]; 3.18E-05 microM,97.5%
same,EC50,"[6]; Homo sapiens, Caov-3, read-out: Cell Count EC50",1.59 nM
same,GI50,"[6]; Homo sapiens, Caov-3, read-out: Cell Count GI50",47.7 nM
same,IC50,"[6]; Homo sapiens, Caov-3, read-out: Cell Count IC50",> 1000 nM
same,Cell Count Activity Area,[7],4.51
same,Relative cell count (%) Mean,[7]; 1.00E+00 microM,43.1%
same,Relative cell count (%) Mean,[7]; 1.00E-01 microM,43.4%
same,Relative cell count (%) Mean,[7]; 1.00E-02 microM,51.1%
same,Relative cell count (%) Mean,[7]; 1.00E-03 microM,64.1%
same,Relative cell count (%) Mean,[7]; 1.01E-04 microM,82.8%
same,Relative cell count (%) Mean,[7]; 3.16E-01 microM,40.8%
same,Relative cell count (%) Mean,[7]; 3.17E-02 microM,49.9%
